From publication PMC6081404, “Active Transport of Peptides Across the Intact Human Tympanic Membrane” (Scientific Reports, 2018) come the findings set out here.

The data set has as its system rat TM fragment. The experiment in a line: Integrity of the TM fragment and seal, trypan-blue dye transit into the lower chamber. It counts as in vitro ADME. Particulars: 0.5% trypan-blue in upper chamber, immediately and after 1–4 hours, visual and absorbance at 590 nm. From the text: Rat TMs were interposed between the two chambers.

Turning to `Cc1cc(-c2ccc(/N=N/c3c(S(=O)(=O)O)cc4cc(S(=O)(=O)O)cc(N)c4c3O)c(C)c2)ccc1/N=N/c1c(S(=O)(=O)O)cc2cc(S(=O)(=O)O)cc(N)c2c1O` [trypan-blue], the “dye transit into the lower chamber across an intact TM fragment” value was “excluded from the lower chamber”.
